From patent publication US4455290A, “Inhibition of fibrin polymerization by a peptide isolated from fibrin Fragment D1” (Research Corporation, priority 1981, dated 1984)
Peptide text beside a SMILES is read from it.

Assays:
fibrinogen = biological target: T1, fibrinogen (Homo sapiens, UniProt P02671+P02675+P02679); assay: Delay of onset of fibrin polymerization, fibrinogen in the presence of thrombin; assay type: biochemical; settings: 1:1 ratio of D1 Peptide to fibrinogen in the presence of thrombin
T1 sequence (P02671 36-629 isoform P02671-2): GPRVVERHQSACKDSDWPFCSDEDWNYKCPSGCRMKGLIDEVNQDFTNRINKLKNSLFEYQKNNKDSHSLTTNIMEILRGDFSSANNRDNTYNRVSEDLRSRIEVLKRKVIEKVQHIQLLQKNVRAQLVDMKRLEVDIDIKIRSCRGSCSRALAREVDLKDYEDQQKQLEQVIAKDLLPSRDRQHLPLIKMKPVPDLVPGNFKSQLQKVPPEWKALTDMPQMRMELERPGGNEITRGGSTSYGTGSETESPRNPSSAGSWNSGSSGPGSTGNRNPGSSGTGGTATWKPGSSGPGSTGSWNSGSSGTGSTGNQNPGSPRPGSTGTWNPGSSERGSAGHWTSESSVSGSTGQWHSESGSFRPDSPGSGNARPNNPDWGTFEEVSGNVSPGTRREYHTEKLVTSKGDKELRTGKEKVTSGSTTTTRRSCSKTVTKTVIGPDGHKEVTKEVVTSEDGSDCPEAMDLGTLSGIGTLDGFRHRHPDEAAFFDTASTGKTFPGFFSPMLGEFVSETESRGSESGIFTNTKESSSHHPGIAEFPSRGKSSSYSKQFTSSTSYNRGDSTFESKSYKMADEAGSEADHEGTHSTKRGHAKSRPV
T1 sequence (P02675 45-491): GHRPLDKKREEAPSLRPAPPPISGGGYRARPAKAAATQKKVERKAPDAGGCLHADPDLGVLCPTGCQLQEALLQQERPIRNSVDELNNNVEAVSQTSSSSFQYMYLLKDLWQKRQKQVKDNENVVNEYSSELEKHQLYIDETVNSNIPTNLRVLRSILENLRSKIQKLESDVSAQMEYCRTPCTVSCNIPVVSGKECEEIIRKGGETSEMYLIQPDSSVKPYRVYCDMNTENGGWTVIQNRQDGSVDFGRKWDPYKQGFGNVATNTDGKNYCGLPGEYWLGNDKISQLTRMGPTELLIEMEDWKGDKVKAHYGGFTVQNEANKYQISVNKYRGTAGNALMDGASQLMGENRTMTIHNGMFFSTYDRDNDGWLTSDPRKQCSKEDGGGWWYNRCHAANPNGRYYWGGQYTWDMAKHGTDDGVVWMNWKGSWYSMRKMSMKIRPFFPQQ
T1 sequence (P02679 27-437 isoform P02679-2): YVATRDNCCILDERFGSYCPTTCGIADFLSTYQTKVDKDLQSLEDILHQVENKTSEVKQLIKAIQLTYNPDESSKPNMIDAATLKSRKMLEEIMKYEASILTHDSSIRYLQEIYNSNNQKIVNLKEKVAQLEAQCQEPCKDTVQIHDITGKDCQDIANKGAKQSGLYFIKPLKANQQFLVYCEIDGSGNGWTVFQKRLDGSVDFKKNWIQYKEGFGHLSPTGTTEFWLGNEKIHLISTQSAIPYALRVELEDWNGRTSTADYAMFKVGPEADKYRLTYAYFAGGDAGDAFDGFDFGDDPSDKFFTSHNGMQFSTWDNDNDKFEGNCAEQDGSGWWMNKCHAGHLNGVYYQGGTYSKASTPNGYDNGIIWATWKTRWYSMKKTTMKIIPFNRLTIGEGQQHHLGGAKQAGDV

[1] = biological target: T2, batroxobin fibrin monomer (Homo sapiens, UniProt P02671+P02675+P02679); assay: Sephadex gel equilibrium binding, batroxobin fibrin monomer; settings: 17 experiments, mean and standard deviation
T2 construct: fibrin monomer which was formed by batroxobin (lacking fibrinopeptide A); made in house; host or cells: not recombinant: made from fibrinogen by treatment with batroxobin (Bothrops atrox venom enzyme)
T2 sequence (P02671 36-629 isoform P02671-2): T1 sequence (P02671 36-629 isoform P02671-2)
T2 sequence (P02675 31-491): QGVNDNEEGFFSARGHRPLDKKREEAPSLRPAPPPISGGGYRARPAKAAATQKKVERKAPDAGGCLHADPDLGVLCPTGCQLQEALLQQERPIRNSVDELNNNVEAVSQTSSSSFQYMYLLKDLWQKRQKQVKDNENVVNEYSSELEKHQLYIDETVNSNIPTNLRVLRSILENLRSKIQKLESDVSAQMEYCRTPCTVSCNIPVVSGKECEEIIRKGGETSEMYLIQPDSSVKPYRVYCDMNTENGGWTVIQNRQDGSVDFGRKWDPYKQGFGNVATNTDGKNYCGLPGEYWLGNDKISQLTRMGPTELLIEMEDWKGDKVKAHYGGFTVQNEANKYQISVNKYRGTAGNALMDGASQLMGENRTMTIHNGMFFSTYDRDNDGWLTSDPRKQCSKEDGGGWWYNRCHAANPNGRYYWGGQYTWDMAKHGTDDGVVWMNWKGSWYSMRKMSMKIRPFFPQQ
T2 sequence (P02679 27-437 isoform P02679-2): T1 sequence (P02679 27-437 isoform P02679-2)
Description: Acta 133, 376-379 (1979).
The purification of NDSK involves incubation of fibrinogen in cyanogen bromide in the presence of 70% formic acid. This treatment may alter the binding sites. Therefore, an attempt was made to reproduce the data using fibrin monomer instead of thrombin-treated NDSK. A major difficulty, the self-polymerization of fibrin monomer, was overcome by using high molar ratios of D1 Peptide to fibrin monomer. However, in this situation the concentration of D1 Peptide could be varied only over a small range of concentrations. D1 Peptide was added to the Sephadex gel equilibrium system and incubated for 10 min., then soluble fibrin monomer was added in a molar excess of D1 Peptide to fibrin monomer of 100-1000 fold. Under these conditions the lag time in the fibrin monomer polymerization was more than 30 min.
In experiments using thrombin fibrin monomer the number of binding sites for D1 Peptide was 1.82±0.26 (15 experiments, mean and standard deviation). For batroxobin fibrin monomer the number of binding sites was 1.91±0.24 (17 experiments, mean and standard deviation).

## CC[C@H](C)[C@H](NC(=O)[C@H](CCCCN)NC(=O)[C@H](CCSC)NC(=O)[C@@H](NC(=O)[C@@H](NC(=O)[C@H](CCCCN)NC(=O)[C@H](CCCCN)NC(=O)[C@H](CCSC)NC(=O)[C@H](CO)NC(=O)[C@H](Cc1ccc(O)cc1)NC(=O)[C@H](Cc1c[nH]c2ccccc12)NC(=O)[C@H](CCCNC(=N)N)NC(=O)[C@@H](N)[C@@H](C)O)[C@@H](C)O)[C@@H](C)O)C(=O)N[C@H](C(=O)N1CCC[C@H]1C(=O)N[C@@H](Cc1ccccc1)C(=O)N[C@@H](CC(N)=O)C(=O)N[C@@H](CCCNC(=N)N)C(=O)N[C@@H](CC(C)C)C(=O)N[C@H](C(=O)N[C@H](C(=O)NCC(=O)N[C@@H](CCC(=O)O)C(=O)NCC(=O)N[C@@H](CCC(N)=O)C(=O)N[C@@H](CCC(N)=O)C(=O)N[C@@H](Cc1c[nH]cn1)C(=O)N[C@@H](Cc1c[nH]cn1)C(=O)N[C@@H](CC(C)C)C(=O)NCC(=O)NCC(=O)N[C@@H](C)C(=O)N[C@@H](CCCCN)C(=O)N[C@@H](CCC(N)=O)C(=O)N[C@@H](C)C(=O)NCC(=O)N[C@@H](CC(=O)O)C(=O)N[C@H](C(=O)O)C(C)C)[C@@H](C)CC)[C@@H](C)O)[C@@H](C)CC [D1 Peptide] (H-TRWYSMKKTTMKIIPFNRLTIGEGQQHHLGGAKQAGDV-OH)
fibrinogen
  delay of the onset of fibrin polymerization: 8 min
[1]
  number of binding sites for D1 Peptide: 1.91±0.24
